The test system of data set [1] is Matricaria inodora (false chamomile, MATIN). Briefly: Greenhouse postemergence trial MATIN. It counts as in vivo. The following applies: MATIN.
Data set [2] relates to Viola arvensis (field violet, VIOAR). Briefly: Greenhouse postemergence trial VIOAR. It is filed as in vivo. The following applies: VIOAR.
The subject of data set [3] is Capsella bursa-pastoris (shepherd's purse, CAPBP). Briefly: Greenhouse postemergence trial CAPBP. It is filed as in vivo. To be noted: CAPBP.
Data set [4] has as its system Papaver rhoeas (corn poppy, PAPRH). Briefly: Greenhouse postemergence trial PAPRH. It is filed as in vivo. The following applies: PAPRH.
Description: (§1) Seeds of the desired test plant species were planted in a 90:10% v/v (volume/volume) mixture of PRO-MIX® BX (Premier Tech Horticulture, Quakertown, PA, USA) and PROFILE® GREENS GRADE™ (Profile Products LLC, Buffalo Grove, IL, USA) planting mixture, which typically has a pH of 5.2 to 6.2 and an organic matter content of at least 50 percent, in plastic pots with a surface area of 103.2 square centimeters (cm^2). […] The plants were grown for 7-36 days (d) in a greenhouse with an approximate 14-hour (h) photo-period which was maintained at about 23° C. during the day and 22° C. during the night. Nutrients and water were added on a regular basis and supplemental lighting was provided with overhead metal halide 1000-Watt lamps as necessary. The plants were employed for testing when they reached the second or third true leaf stage.
(§2) Emulsifiable concentrates of each of each pyridine carboxylate herbicide (Compound A or Compound B) were prepared at 100 grams acid equivalent per liter (g ae/L). The emulsifiable concentrates also included a safener, cloquintocet-mexyl, at 120 grams active ingredient per liter (g ai/L), unless otherwise noted below. An aliquot of each emulsifiable concentrate was placed in a 25 mL glass vial and diluted with an aqueous mixture of 1.25% (v/v) ACTIROB® B esterified rapeseed oil (Bayer Crop Science, Research Triangle Park, NC, USA) or MSO® Concentrate with LECI-TECH® methylated soybean oil (Loveland Products, Loveland, CO, USA) to obtain concentrated stock solutions at the highest application rate for each herbicide, based upon a 12 milliliter (mL) application volume at a rate of 187 liters per hectare (L/ha). The concentrated stock solutions were further diluted with an aqueous mixture of 1.25% v/v ACTIROB® B or MSO® Concentrate with LECI-TECH® to obtain stock solutions at reduced application rates for each herbicide. Spray solutions of the herbicide combinations (Compound A or Compound B plus synthetic auxin herbicide or auxin transport inhibitor) were prepared by adding weighed amounts or aliquots of the synthetic auxin herbicide or auxin transport inhibitor to the stock solutions of Compound A or Compound B to form 12-mL spray solutions in two-way combinations.
(§3) The spray solutions were applied to the plant material with an overhead Mandel track sprayer equipped with 8002E nozzles calibrated to deliver 187 L/ha over an application area of 0.503 square meters (m^2) at a spray height of 18 inches (43 centimeters (cm)) above the average plant canopy. Control plants were sprayed in the same manner with the solvent blank. All pyridine carboxylate herbicide (component a) application rates are given as “g ae/ha” and all synthetic auxin herbicide or auxin transport inhibitor (component b) application rates are given as “g ai/ha.”
(§4) The treated plants and control plants were placed in a greenhouse as described above and watered by sub-irrigation to prevent wash-off of the test compounds. After 20-22 d, the condition of the test plants as compared with that of the control plants was determined visually and scored on a scale of 0 to 100 percent where 0 corresponds to no injury and 100 corresponds to complete kill.
In data set [5] the test system is Sinapis arvensis (wild mustard, SINAR). In words: Greenhouse postemergence trial SINAR. It counts as in vivo. To be noted: SINAR; for % visual injury, Obs: applied alone.
The test system of data set [6] is Kochia scoparia (kochia, KCHSC). Briefly: Greenhouse postemergence trial KCHSC. It counts as in vivo. To be noted: KCHSC; for % visual injury, Obs: applied alone.
Data set [7] has as its system Cyanus segetum (cornflower, CENCY). In words: Greenhouse postemergence trial CENCY. It counts as in vivo. To be noted: CENCY.
Description: as §1, §2, §3, §4
In data set [8] the test system is Anthemis arvensis (field chamomile, ANTAR). In words: Greenhouse postemergence trial ANTAR. It is filed as in vivo. The following applies: ANTAR.
Description: as §1, §2, §3, §4
In data set [9] the test system is Veronica hederifolia (ivyleaf speedwell, VERHE). Briefly: Greenhouse postemergence trial VERHE. It counts as in vivo. The following applies: VERHE.
Description: as §1, §2, §3, §4
Data set [10] relates to Matricaria chamomilla (wild chamomile, MATCH). Briefly: Greenhouse postemergence trial MATCH.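 As to all read-outs here: greenhouse plants sprayed at second to third true leaf stage, injury rated by eye 20-22 d later versus solvent-blank controls on 0–100 scale, 0 no injury, 100 complete kill.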 It counts as in vivo. The following applies: MATCH; for % visual injury, Obs: applied alone.
Data set [11] deals with Stellaria media (chickweed, STEME). In words: Greenhouse postemergence trial STEME. It is filed as in vivo. The following applies: STEME.
Description: as §1, §2, §3, §4
Data set [12] has as its system Veronica persica (bird's-eye speedwell, VERPE). In words: Greenhouse postemergence trial VERPE. It is filed as in vivo.
Data set [13] concerns Matricaria discoidea (pineapple weed, MATMT). In words: Greenhouse postemergence trial MATMT. It is filed as in vivo.
Description: as §1, §2, §3, §4
The subject of data set [14] is Lamium purpureum (purple deadnettle, LAMPU). In words: Greenhouse postemergence trial LAMPU.
Description: (§5) The plants were grown for 7-36 days (d) in a greenhouse with an approximate 14-hour (h) photo-period which was maintained at about 23° C. during the day and 22° C. during the night. Nutrients and water were added on a regular basis and supplemental lighting was provided with overhead metal halide 1000-Watt lamps as necessary. The plants were employed for testing when they reached the second or third true leaf stage.
(§6) The emulsifiable concentrates also included a safener, cloquintocet-mexyl, at 120 grams active ingredient per liter (g ai/L), unless otherwise noted below.
(§7) Control plants were sprayed in the same manner with the solvent blank. All pyridine carboxylate herbicide (component a) application rates are given as “g ae/ha” and all synthetic auxin herbicide or auxin transport inhibitor (component b) application rates are given as “g ai/ha.”
as §4
In data set [15] the test system is Viola tricolor (wild pansy, VIOTR). Briefly: Greenhouse postemergence trial VIOTR.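 Also: greenhouse plants sprayed at second to third true leaf stage, injury rated visually after 20-22 d against solvent-blank sprayed controls, 0 meaning no injury and 100 complete kill.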
The subject of data set [16] is Salsola kali (Russian thistle, SASKR). In words: Greenhouse postemergence trial SASKR.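 As to all read-outs here: greenhouse plants sprayed at second or third true leaf stage, injury rated by eye after 20-22 d against solvent-blank controls, 0 meaning no injury, 100 complete kill.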 It is filed as in vivo. To be noted: SASKR; for % visual injury, Obs: applied alone.
Data set [17] relates to Brassica napus (winter rape, BRSNW). Briefly: Greenhouse postemergence trial BRSNW. It is filed as in vivo.
The test system of data set [18] is Polygonum convolvulus (wild buckwheat, POLCO). Briefly: Greenhouse postemergence trial POLCO. It counts as in vivo. To be noted: POLCO; for % visual injury, Obs: applied alone.
The test system of data set [19] is Papaver rhoeas (corn poppy), herbicide-resistant (PAPRH-R). In words: Greenhouse postemergence trial PAPRH-R. It is filed as in vivo.
Data set [20] concerns Cirsium arvense (Canadian thistle, CIRAR). Briefly: Greenhouse postemergence trial CIRAR. It counts as in vivo. The following applies: for % visual injury, Obs: applied alone.
The test system of data set [21] is Triticum aestivum (spring wheat, TRZAS). It counts as in vivo.
Data set [22] relates to Amaranthus retroflexus (pigweed, AMARE). In words: Greenhouse postemergence trial AMARE.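 Also: Greenhouse-grown plants sprayed at second to third true leaf stage, injury rated by eye after 20-22 d versus solvent-blank sprayed controls, 0 = no injury, 100 = complete kill.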 It is filed as in vivo.
Data set [23] concerns Hordeum vulgare (spring barley, HORVS). It is filed as in vivo.
The subject of data set [24] is Chenopodium album L. (common lambsquarters, CHEAL). Briefly: Greenhouse postemergence trial CHEAL.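 Also: greenhouse plants sprayed at second to third true leaf stage, injury rated by eye after 20-22 d versus solvent-blank sprayed controls, 0 = no injury, 100 = complete kill.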 It is filed as in vivo.
Description: as §5, §6, §7, §4
Data set [25] has as its system Hordeum vulgare (winter barley, HORVW). In words: Greenhouse postemergence crop phytotoxicity HORVW. It counts as in vivo. To be noted: HORVW; partner herbicide 560 g/ha alone.
Data set [26] deals with Triticum aestivum (winter wheat, TRZAW). Briefly: Greenhouse postemergence crop phytotoxicity TRZAW. It is filed as in vivo. To be noted: TRZAW; partner herbicide 560 g/ha alone.
Setting [27] is: partner herbicide 560 g/ha alone.

As to `CC(Oc1ccc(Cl)cc1Cl)C(=O)O` (stereo not drawn) [Dichlorprop], the “% visual injury, Obs” value in data set [1] (applied alone, 560 g/ha) amounted to 60%; in [2] (applied alone, 560 g/ha), 25%; in data set [3] (applied alone, 560 g/ha) it was 70%; in data set [4] (applied alone, 560 g/ha), 65%; in [5] (560 g/ha) it was 100%; in data set [6] (560 g/ha), 75%. Also, the “% visual injury, Obs” value in data set [7] (applied alone, 560 g/ha) was 100%; in data set [8] (applied alone, 560 g/ha), 95%; in [9] (applied alone, 560 g/ha), 60%; in data set [10] (560 g/ha), 50%; in data set [11] (applied alone, 560 g/ha), 30%; in data set [12] (VERPE, applied alone, 560 g/ha) it was 30%. Besides, the “% visual injury, Obs” value in data set [13] (MATMT, applied alone, 560 g/ha) is given as 10%; in [14] (LAMPU, applied alone, 560 g/ha), 30%; in [15] (VIOTR, applied alone, 560 g/ha), 85%; in [16] (560 g/ha), 70%; in data set [18] (560 g/ha), 95%; in data set [19] (PAPRH-R, applied alone, 560 g/ha), 30%. Further, the “% visual injury, Obs” value in data set [20] (CIRAR, 560 g/ha) came out at 75%. For the same compound, in data set [17] (Brassica napus, post-emergence, BRSNW, applied alone, 560 g/ha, read-out: % visual injury, Obs), the plant injury at 560 g/ha was found to be 75%.

For `Nc1c(Cl)c(F)nc(OCC(=O)O)c1Cl` [Fluroxypyr], the pest or weed control in [1] (Tripleurospermum inodorum, post-emergence, Fluroxypyr 200 g/ha, read-out: % visual injury Obs) is 65%; in [2] (Viola arvensis, post-emergence, Fluroxypyr 200 g/ha, read-out: % visual injury Obs), 10%; in data set [3] (Capsella bursa-pastoris, post-emergence, Fluroxypyr 200 g/ha, read-out: % visual injury Obs), 10%; in data set [4] (Papaver rhoeas, post-emergence, Fluroxypyr 200 g/ha, read-out: % visual injury Obs) it was 0%; in data set [5] (Mutarda arvensis, post-emergence, Fluroxypyr 200 g/ha, read-out: % visual injury Obs), 90%; in [6] (Bassia scoparia, post-emergence, Fluroxypyr 200 g/ha, read-out: % visual injury Obs), 70%. In addition, the pest or weed control came out at 100% in data set [7] (Centaurea cyanus, post-emergence, Fluroxypyr 200 g/ha, read-out: % visual injury Obs); 60% in [8] (Anthemis arvensis, post-emergence, Fluroxypyr 200 g/ha, read-out: % visual injury Obs); 10% in data set [9] (Veronica hederifolia, post-emergence, Fluroxypyr 200 g/ha, read-out: % visual injury Obs); 10% in data set [10] (Matricaria chamomilla, post-emergence, Fluroxypyr 200 g/ha, read-out: % visual injury Obs); 95% in [11] (Stellaria media, post-emergence, Fluroxypyr 200 g/ha, read-out: % visual injury Obs); 60% in data set [12] (Veronica persica, post-emergence, VERVE, Fluroxypyr 200 g/ha, read-out: % visual injury Obs). Besides, the pest or weed control in [13] (Matricaria discoidea, post-emergence, MATMT, Fluroxypyr 200 g/ha, read-out: % visual injury Obs) turned out to be 0%; in [16] (Salsola kali, post-emergence, Fluroxypyr 200 g/ha, read-out: % visual injury Obs) it was 60%; in data set [18] (Fallopia convolvulus, post-emergence, Fluroxypyr 200 g/ha, read-out: % visual injury Obs), 50%; in data set [19] (Papaver rhoeas, post-emergence, PAPRH-R, Fluroxypyr 200 g/ha, read-out: % visual injury Obs), 10%; in [20] (Cirsium arvense, post-emergence, CIRAR, Fluroxypyr 200 g/ha, read-out: % visual injury Obs), 10%. Besides, the “MATMT % visual injury Obs” value in data set [13] (Fluroxypyr 70 g/ha (Table 38)) and in [13] (Fluroxypyr 100 g/ha (Table 38)) was 10% each time. The pest or weed control at 200 g/ha in data set [14] (Lamium purpureum, post-emergence, read-out: % visual injury Obs) was found to be 65%; in data set [15] (Viola tricolor, post-emergence, read-out: % visual injury Obs), 65%. Also, the plant injury in [17] (Brassica napus, post-emergence, BRSNW, Fluroxypyr 200 g/ha, read-out: % visual injury Obs) amounted to 30%. Also, the “PAPRH-R % visual injury Obs” value in data set [19] (Fluroxypyr 70 g/ha (Table 38)) and in [19] (Fluroxypyr 100 g/ha (Table 38)) was 25% in each case.

For `COC(=O)c1nc(-c2ccc(Cl)c(OC)c2F)cc(N)c1Cl` [Halatvcifen-methyl], the “% visual injury, Obs” value in [21] (TRZAS, applied alone, 3 g/ha) is reported as 0%; in data set [22] (AMARE, applied alone, 3 g/ha), 68%; in data set [5] (3 g/ha), 40%; in data set [6] (3 g/ha), 40%; in data set [10] (3 g/ha) it was 5%; in [23] (HORVS, applied alone, 3 g/ha) it was 0%. Besides, the “% visual injury, Obs” value in data set [24] (CHEAL, applied alone, 3 g/ha) is reported as 83%; in [16] (3 g/ha), 73%; in data set [17] (BRSNW, applied alone, 3 g/ha), 15%; in [18] (3 g/ha), 20%; in data set [20] (CIRAR, 3 g/ha) it was 10%.

`Cc1cc(Cl)ccc1OCC(=O)O` [MCPA-DMA, MCPA-dimethylammonium, reference compound]: the “% visual injury (crop phytotoxicity)” value in [21] (Triticum aestivum (spring wheat, TRZAS), in vivo) is 0%; in data set [23] (Hordeum vulgare (spring barley, HORVS), in vivo), 0%. Also, the “TRZAS % visual injury Obs” value in data set [21] (in vivo) is 0%. Also, the “% visual injury” value amounted to 63% in data set [22] (in vivo) and 75% in data set [24] (in vivo). Also, the “HORVS % visual injury Obs” value in [23] (in vivo) stood at 0%. Besides, the “BRSNW % visual injury Obs” value in data set [17] (MCPA-DMA 400 g/ha (Table 37)) is recorded as 83%. Further, in data set [20] (in vivo), the “CIRAR % visual injury Obs” value is reported as 60%.

As for `Cc1cc(Cl)ccc1OCC(=O)O` [MCPA], the “visual injury, Obs” value was 0% in [21] (TRZAS, partner herbicide 560 g/ha alone); 50% in data set [1] (setting [27]); 20% in data set [2] (setting [27]); 60% in data set [3] (setting [27]); 95% in data set [4] (setting [27]); 100% in data set [5] (setting [27]). Besides, the “visual injury, Obs” value in data set [6] (setting [27]) amounted to 30%; in data set [25] it was 0%; in [7] (setting [27]) it was 95%; in [8] (setting [27]), 60%; in data set [9] (setting [27]) it was 65%; in data set [10] (setting [27]) it was 30%. Also, the “visual injury, Obs” value in data set [11] (setting [27]) stood at 50%; in data set [12] (VERPE, partner herbicide 560 g/ha alone), 60%; in [26] it was 0%; in [13] (MATMT, partner herbicide 560 g/ha alone), 5%; in data set [23] (HORVS, partner herbicide 560 g/ha alone), 0%; in data set [14] (LAMPU, partner herbicide 560 g/ha alone), 10%. In addition, the “visual injury, Obs” value was determined as 60% in data set [15] (VIOTR, partner herbicide 560 g/ha alone); 30% in data set [16] (setting [27]); 90% in data set [17] (BRSNW, partner herbicide 560 g/ha alone); 30% in data set [18] (setting [27]); 60% in data set [19] (PAPRH-R, partner herbicide 560 g/ha alone); 65% in [20] (CIRAR, partner herbicide 560 g/ha alone).

(Values after patent publication US12568967B2, “Compositions comprising pyridine carboxylate herbicides with synthetic auxin herbicides or auxin transport inhibitors” (priority 2018, dated 2026).)
